Laboratory results reported in patent US10131652B2, “Pyrimidinyloxy benzene derivatives as herbicides” (E. I. DU PONT DE NEMOURS AND COMPANY, priority 2014, dated 2018).

Columns and labels:
Type in all cases: in vivo
[1] = tested on: Italian ryegrass (Lolium multiflorum); experiment: Test B pre-/postemergence plant response
How it was run: (§1)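 Steps: plant seeds in loam soil–sand mix; spray soil preemergence, and in parallel spray 2–10 cm one- to two-leaf plants postemergence; hold ~10 days in greenhouse; visually rate injury against untreated controls (0 = no effect, 100 = complete control).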

[2] = tested on: kochia (Kochia scoparia); experiment: Test B pre-/postemergence plant response
How it was run: as §1

[3] = tested on: ragweed (common ragweed, Ambrosia elatior); experiment: Test B pre-/postemergence plant response
How it was run: as §1

[4] = tested on: Italian ryegrass (Lolium multiflorum); experiment: Test D pre-/postemergence plant response; details: Postemergence; for Plant response rating (scale 0 to 100), Ryegrass, Italian: 16 g ai/ha; for Plant response rating, Ryegrass, Italian: 125 g ai/ha
How it was run: (§2)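 Ratings were visual, 0 = no effect to 100 = complete control, taken against untreated controls after 13 to 15 days in a greenhouse. Chemicals, formulated in non-phytotoxic surfactant-containing solvent, went onto soil (loam/sand) at planting for preemergence, or onto 1- to 4-leaf plants (2–18 cm) for postemergence.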

[5] = tested on: barnyardgrass (Echinochloa crus-galli); experiment: Test D pre-/postemergence plant response; details: Postemergence; for Plant response rating (scale 0 to 100), Barnyardgrass: 16 g ai/ha; for Barnyardgrass plant response rating: 31 g ai/ha, scale 0 to 100 (0 no effect, 100 complete control); for Plant response rating, Barnyardgrass: scale 0 to 100, 0 no effect, 100 complete control
How it was run: as §2

[6] = tested on: blackgrass (Alopecurus myosuroides); experiment: Test D pre-/postemergence plant response; details: Postemergence; for Plant response rating (scale 0 to 100), Blackgrass: 16 g ai/ha; for Blackgrass plant response rating: 31 g ai/ha, scale 0 to 100 (0 no effect, 100 complete control); for Plant response rating, Blackgrass: scale 0 to 100, 0 no effect, 100 complete control
How it was run: as §2

[7] = tested on: corn (Zea mays); experiment: Test D pre-/postemergence plant response; details: Postemergence; for Plant response rating (scale 0 to 100), Corn: 16 g ai/ha; for Corn plant response rating: 31 g ai/ha, scale 0 to 100 (0 no effect, 100 complete control); for Plant response rating, Corn: scale 0 to 100, 0 no effect, 100 complete control
How it was run: as §2

[8] = tested on: galium (catchweed bedstraw, Galium aparine); experiment: Test D pre-/postemergence plant response; details: Postemergence; for Plant response rating (scale 0 to 100), Galium: 16 g ai/ha; for Galium plant response rating: 31 g ai/ha, scale 0 to 100 (0 no effect, 100 complete control); for Plant response rating, Galium: scale 0 to 100, 0 no effect, 100 complete control
How it was run: as §2

[9] = tested on: giant foxtail (Setaria faberii); experiment: Test D pre-/postemergence plant response; details: Postemergence; for Plant response rating (scale 0 to 100), Foxtail, Giant: 16 g ai/ha; for Foxtail, Giant plant response rating: 31 g ai/ha, scale 0 to 100 (0 no effect, 100 complete control); for Plant response rating, Foxtail, Giant: scale 0 to 100, 0 no effect, 100 complete control
How it was run: as §2

[10] = tested on: large (Lg) crabgrass (Digitaria sanguinalis); experiment: Test D pre-/postemergence plant response; details: Postemergence; for Plant response rating (scale 0 to 100), Crabgrass, Large: 16 g ai/ha; for Crabgrass, Large plant response rating: 31 g ai/ha, scale 0 to 100 (0 no effect, 100 complete control); for Plant response rating, Crabgrass, Large: scale 0 to 100, 0 no effect, 100 complete control
How it was run: as §2

[11] = tested on: oilseed rape (Brassica napus); experiment: Test D pre-/postemergence plant response; details: Postemergence; for Plant response rating (scale 0 to 100), Oilseed Rape: 16 g ai/ha; for Plant response rating, Oilseed Rape: 125 g ai/ha
How it was run: as §2

[12] = tested on: pigweed (Amaranthus retroflexus); experiment: Test D pre-/postemergence plant response; details: Postemergence; for Plant response rating (scale 0 to 100), Pigweed: 16 g ai/ha; for Plant response rating, Pigweed: 125 g ai/ha
How it was run: as §2

[13] = tested on: ragweed (common ragweed, Ambrosia elatior); experiment: Test D pre-/postemergence plant response; details: Postemergence; for Plant response rating (scale 0 to 100), Ragweed: 16 g ai/ha; for Plant response rating, Ragweed: 125 g ai/ha
How it was run: as §2

[14] = tested on: yellow nutsedge (Cyperus esculentus); experiment: Test D pre-/postemergence plant response; details: Postemergence; for Plant response rating (scale 0 to 100), Nutsedge, Yellow: 16 g ai/ha; for Plant response rating, Nutsedge, Yellow: 125 g ai/ha
How it was run: as §2

[15] = 125 g ai/ha, postemergence, 0 to 100 scale, 0 no effect, 100 complete control
[16] = Postemergence, 500 g ai/ha, 0 to 100 scale (0 no effect, 100 complete control)
[17] = Preemergence, 125 g ai/ha, 0 to 100 scale (0 no effect, 100 complete control)
[18] = Preemergence, 500 g ai/ha, 0 to 100 scale where 0 is no effect and 100 is complete control
[19] = 31 g ai/ha, scale 0 to 100 (0 no effect, 100 complete control)
[20] = 62 g ai/ha, scale 0 to 100, 0 no effect, 100 complete control
[21] = scale 0 to 100, 0 no effect, 100 complete control
[22] = Postemergence, 1000 g ai/ha, 0 to 100 scale (0 no effect, 100 complete control)
[23] = Preemergence, 1000 g ai/ha, 0 to 100 scale (0 no effect, 100 complete control)

## Clc1cnc(Oc2ccccc2-c2ccon2)nc1 [Compound 185]
[1]; [15]
  Plant response rating, Ryegrass, Italian: 0
[1]; [16]
  Plant response rating, Ryegrass, Italian: 0
[1]; [17]
  Ryegrass, Italian plant response rating: 0
[1]; [18]
  Plant response rating, Ryegrass, Italian: 0
[2]; [15]
  Plant response rating, Kochia: 90
[2]; [16]
  Plant response rating, Kochia: 100
[2]; [17]
  Kochia plant response rating: 40
[2]; [18]
  Plant response rating, Kochia: 100
[3]; [15]
  Plant response rating, Ragweed: 70
[3]; [16]
  Plant response rating, Ragweed: 100
[3]; [17]
  Ragweed plant response rating: 10
[3]; [18]
  Plant response rating, Ragweed: 90
[4]
  Plant response rating (scale 0 to 100), Ryegrass, Italian: 0
[4]; [19]
  Ryegrass, Italian plant response rating: 0
[4]; [20]
  Ryegrass, Italian plant response rating: 0
[4]; [21]
  Plant response rating, Ryegrass, Italian: 0
[5]
  Plant response rating (scale 0 to 100), Barnyardgrass: 0
  Barnyardgrass plant response rating: 0
[5]; 62 g ai/ha
  Plant response rating, Barnyardgrass: 0
[5]; 125 g ai/ha
  Plant response rating, Barnyardgrass: 5
[6]
  Plant response rating (scale 0 to 100), Blackgrass: 0
  Blackgrass plant response rating: 0
[6]; 62 g ai/ha
  Plant response rating, Blackgrass: 0
[6]; 125 g ai/ha
  Plant response rating, Blackgrass: 0
[7]
  Plant response rating (scale 0 to 100), Corn: 0
  Corn plant response rating: 0
[7]; 62 g ai/ha
  Plant response rating, Corn: 5
[7]; 125 g ai/ha
  Plant response rating, Corn: 5
[8]
  Plant response rating (scale 0 to 100), Galium: 0
  Galium plant response rating: 0
[8]; 62 g ai/ha
  Plant response rating, Galium: 5
[8]; 125 g ai/ha
  Plant response rating, Galium: 5
[9]
  Plant response rating (scale 0 to 100), Foxtail, Giant: 35
  Foxtail, Giant plant response rating: 5
[9]; 62 g ai/ha
  Plant response rating, Foxtail, Giant: 5
[9]; 125 g ai/ha
  Plant response rating, Foxtail, Giant: 5
[10]
  Plant response rating (scale 0 to 100), Crabgrass, Large: 0
  Crabgrass, Large plant response rating: 0
[10]; 62 g ai/ha
  Plant response rating, Crabgrass, Large: 10
[10]; 125 g ai/ha
  Plant response rating, Crabgrass, Large: 10
[11]
  Plant response rating (scale 0 to 100), Oilseed Rape: 0
[11]; [19]
  Oilseed Rape plant response rating: 0
[11]; [20]
  Oilseed Rape plant response rating: 0
[11]; [21]
  Plant response rating, Oilseed Rape: 0
[12]
  Plant response rating (scale 0 to 100), Pigweed: 10
[12]; [19]
  Pigweed plant response rating: 35
[12]; [20]
  Pigweed plant response rating: 35
[12]; [21]
  Plant response rating, Pigweed: 50
[13]
  Plant response rating (scale 0 to 100), Ragweed: 10
[13]; [19]
  Ragweed plant response rating: 20
[13]; [20]
  Ragweed plant response rating: 15
[13]; [21]
  Plant response rating, Ragweed: 25
[14]
  Plant response rating (scale 0 to 100), Nutsedge, Yellow: 0
[14]; [19]
  Nutsedge, Yellow plant response rating: 0
[14]; [20]
  Nutsedge, Yellow plant response rating: 0
[14]; [21]
  Plant response rating, Nutsedge, Yellow: 30

## FCc1cc(-c2c(Br)cccc2Oc2ncc(Cl)cn2)no1 [Compound 191]
[1]; [22]
  Plant response rating, Ryegrass, Italian: 100
[1]; [23]
  Plant response rating, Ryegrass, Italian: 90
[2]; [22]
  Plant response rating, Kochia: 100
[2]; [23]
  Plant response rating, Kochia: 100
[3]; [22]
  Plant response rating, Ragweed: 90
[3]; [23]
  Plant response rating, Ragweed: 90
[4]
  Plant response rating (scale 0 to 100), Ryegrass, Italian: 0
[4]; [19]
  Ryegrass, Italian plant response rating: 0
[4]; [20]
  Ryegrass, Italian plant response rating: 0
[4]; [21]
  Plant response rating, Ryegrass, Italian: 5
[5]
  Plant response rating (scale 0 to 100), Barnyardgrass: 5
  Barnyardgrass plant response rating: 5
[5]; 62 g ai/ha
  Plant response rating, Barnyardgrass: 5
[5]; 125 g ai/ha
  Plant response rating, Barnyardgrass: 10
[6]
  Plant response rating (scale 0 to 100), Blackgrass: 0
  Blackgrass plant response rating: 0
[6]; 62 g ai/ha
  Plant response rating, Blackgrass: 0
[6]; 125 g ai/ha
  Plant response rating, Blackgrass: 5
[7]
  Plant response rating (scale 0 to 100), Corn: 5
  Corn plant response rating: 5
[7]; 62 g ai/ha
  Plant response rating, Corn: 10
[7]; 125 g ai/ha
  Plant response rating, Corn: 10
[8]
  Plant response rating (scale 0 to 100), Galium: 40
  Galium plant response rating: 70
[8]; 62 g ai/ha
  Plant response rating, Galium: 85
[8]; 125 g ai/ha
  Plant response rating, Galium: 85
[9]
  Plant response rating (scale 0 to 100), Foxtail, Giant: 5
  Foxtail, Giant plant response rating: 5
[9]; 62 g ai/ha
  Plant response rating, Foxtail, Giant: 5
[9]; 125 g ai/ha
  Plant response rating, Foxtail, Giant: 5
[10]
  Plant response rating (scale 0 to 100), Crabgrass, Large: 5
  Crabgrass, Large plant response rating: 10
[10]; 62 g ai/ha
  Plant response rating, Crabgrass, Large: 10
[10]; 125 g ai/ha
  Plant response rating, Crabgrass, Large: 20
[11]
  Plant response rating (scale 0 to 100), Oilseed Rape: 0
[11]; [19]
  Oilseed Rape plant response rating: 40
[11]; [20]
  Oilseed Rape plant response rating: 60
[11]; [21]
  Plant response rating, Oilseed Rape: 90
[12]
  Plant response rating (scale 0 to 100), Pigweed: 35
[12]; [19]
  Pigweed plant response rating: 30
[12]; [20]
  Pigweed plant response rating: 30
[12]; [21]
  Plant response rating, Pigweed: 60
[13]
  Plant response rating (scale 0 to 100), Ragweed: 30
[13]; [19]
  Ragweed plant response rating: 40
[13]; [20]
  Ragweed plant response rating: 60
[13]; [21]
  Plant response rating, Ragweed: 65
[14]
  Plant response rating (scale 0 to 100), Nutsedge, Yellow: 0
[14]; [19]
  Nutsedge, Yellow plant response rating: 5
[14]; [20]
  Nutsedge, Yellow plant response rating: 5
[14]; [21]
  Plant response rating, Nutsedge, Yellow: 10
